A value given as a limit tells only on which side of the number the result lay.

This is an account of results in BindingDB's records for PubMed 38746901 (Smith, Gambrell & Russell).

The test can be described thus: Inhibition of human recombinant GST tagged NIK incubated for 2 hrs in presence of ATP by alpha screen assay. (In general: In Alpha technology, singlet oxygen from a donor bead excites a nearby acceptor bead.)
Regarding `CN1CC(F)(F)[C@@](O)(c2cc(-c3cccc(-c4ccnc(Nc5cnn(C)c5)n4)n3)no2)C1=O`, the concentration for half-maximal inhibition (IC50) (as a rule, the point on the concentration scale where inhibition reaches its midpoint) was below 50 nM.

In the case of `Cc1nocc1Nc1nccc(-c2cccc(-c3cc([C@]4(O)CCN(C)C4=O)on3)n2)n1`, the IC50 was below 50 nM.

`CN1CC[C@@](O)(c2cn(-c3cccc(-c4ccnc(Nc5ccn(C)n5)n4)n3)nn2)C1=O`: the IC50 is below 50 nM.

Turning to `CN1CC[C@@](O)(c2nnc(-c3cccc(-c4ccnc(Nc5cnn(C)c5Cl)n4)n3)s2)C1=O`, the IC50 was below 50 nM.

For `CN1CC[C@@](O)(c2cc(-c3cccc(-c4ccnc(Nc5cnn(C)c5C5CC5)n4)n3)no2)C1=O`, the IC50 was below 50 nM.

For `Cc1nscc1Nc1nccc(-c2cccc(-c3cc([C@]4(O)CCN(C)C4=O)on3)n2)n1`, the IC50 was below 50 nM.
